{"source": "patent US10047151B2", "about": "“Methods for the treatment of cancer and inflammatory diseases using cereblon as a predictor” (Celgene Corporation, priority 2011, dated 2018)", "key": {"U266": {"tested_on": "U266", "experiment": "Ubiscan ubiquitinated peptide quantification in U266", "assay_type": "cell-based", "excerpt": "The effects of lenalidomide and pomalidomide on protein ubiquination were investigated using CST Ubiscan technology. Treated samples were sent to Cell Signaling Technology for ubiquinated peptide enrichment and quantification by LC/MS/MS. […] In the MG132 combo, more ubiquinated peptides are observed (compared with their controls). […] These peptides correspond to 176 unique proteins. Top few groups are: nucleosome, chromatin, protein-DNA complex assembly, Histone H2A. Among the 176 proteins, we found five proteins that belong to “ubiquitin-protein ligase activity” category, they are MDM2, HERC2, UBE2D3 (only by pomalidomide), UBE2N (lenalidomide only), UBE2M (both). Results for hits categorized by conditions are shown in FIGS. 8 & 9 (without MG132) and FIGS. 10 & 11 (with MG132)."}, "DLBCL cells": {"tested_on": "DLBCL cells", "experiment": "3H-thymidine incorporation cell proliferation assay in DLBCL cell lines", "assay_type": "cell-based", "settings": "0.01-100 μM, 5 days", "method": "Cell proliferation was assessed using the ^3H-thymidine incorporation assay. Briefly, logarithmically growing DLBCL cells were cultured in 96-well culture plates in complete media with the indicated concentration of lenalidomide or DMSO control. Following incubation at 37° C. for 5 days, 1 μCi ^3H-thymidine (GE Healthcare Biosciences, Piscataway, N.J.) was added to each well for the final 5 hours of incubation. Cells were then harvested onto UniFilter GF/C filter plates (PerkinElmer, Waltham, Mass.) using a cell harvester (Tomtec, Hamden, Conn.) and the plates were allowed to dry overnight. The ^3H-thymidine incorporation of each well was then measured using a TopCount NXT Microplate Scintillation and Luminescence Counter (Packard BioScience, Meriden, Conn.). The percent inhibition of cell proliferation was calculated and normalized to DMSO control.\nIn order to define the place of lenalidomide for DLBCL therapy in specific patient populations and to understand the molecular mechanisms of efficacy, a panel of DLBCL cell lines was collected in this study. The DLBCL subtypes of the cell lines were confirmed based on literature information (Lenz G, et al., Proc Natl Acad Sci USA 2008; 105: 13520-5) and molecular analysis, including intracellular NF-κB activity or IRF4 expression, as well as gene expression profiling of key signature genes of activated B cells."}}, "data": [{"smiles": "Nc1cccc2c1CN(C1CCC(=O)NC1=O)C2=O", "note": "(stereo not shown) [lenalidomide, 3-(4-amino-1-oxo-1,3-dihydro-isoindol-2-yl)-piperidine-2,6-dione]", "values": [{"measurement": "Ub-proteins increased in abundance", "setting": "U266", "result": "IKZF3, RPL19, PCM1 and NEDD8"}, {"measurement": "proteins decreased in abundance", "setting": "U266", "result": "GNB2L1 and HNRNPR"}, {"measurement": "proliferation of cells", "setting": "DLBCL cells; ABC-DLBCL cell lines, except for OCI-Ly3", "result": "significantly inhibited"}, {"measurement": "proliferation of cells", "setting": "DLBCL cells; PBML and GCB-DLBCL cells", "result": "minimal effects"}]}]}
